One series relates to Tumour-carrying mice. As to the kind of experiment: Nephrological tolerability (kidney post-mortem and histology). It counts as in vivo. The procedure:
A control group was treated only with the carrier according to a twice weekly treatment scheme.
When the 28-day treatment period had ended, a post-mortem was carried out on the mice. […] The kidneys of all the animals in the test groups were removed by operation, fixed in formalin according to standard methods, embedded in paraffin and processed for HE staining.

The test system of another series is MAXF 401. In words: MAXF 401 breast tumour xenograft in nude mice. It counts as in vivo. The settings on record: for Mortality: deaths/animals. How it is done:
All the tests were carried out using female nude mice under standard conditions for the keeping of animals with controlled illumination and temperature. The animals were given water and food as desired.
The increase in the volume of the individual tumours was measured using microcallipers, and the size of the tumour was calculated according to the formula a*b^2/2 (where a is the largest diameter of the tumour and b is the vertical axis). When the tumour volume had increased to 80-120 mm^3, the animals were allocated at random into test groups of in each case 6 animals.
The test compounds (in the form of sodium salts) were dissolved in a saline solution, and 5% Klucel (hydroxypropylcellulose) was added in order to dissolve all the test compounds in the same carrier. […] A volume of 10 ml/kg body weight was injected. Animals that received only the carrier served as control. The test compounds were treated according to the scheme of twice weekly administration over a period of […]. The tumour volume and the body weight were checked twice weekly, and the relative tumour volumes were calculated as the ratio of tumour size to body weight.
On the basis of the relative tumour volumes of the animals treated with the test compounds compared with the tumour volumes of the controls treated only with the carrier, the T/C values were calculated and were used as the index of anti-tumour activity.
Subcutaneous implantation of the tumour and the determination of the tumour volume were carried out as described hereinbefore. The above-mentioned salts of the test substance were administered by ip injection twice weekly in the mentioned doses in the form of an aqueous solution, over a period of 4 weeks. […]
Subcutaneous implantation of the tumour and the determination of tumour volumes were carried out as described hereinbefore. The test substance was administered by ip injection twice weekly in the mentioned doses in the form of the sodium salt as an aqueous solution, over a period of 4 weeks.

A further series in a line: Solubility in water. As to conditions: for solubility: water. It counts as physicochemical.
Another series deals with MEXF 462. In words: MEXF 462 melanoma xenograft model. The format is in vivo, nude mice. As to conditions: for outcome of treatment: equimolar doses ip twice weekly over 4 weeks. How it is done:
Breast tumours (MAXF 401) were implanted subcutaneously into the rear members of the mice aged 10 weeks. The increase in the volume of the individual tumours was measured using microcallipers, and the size of the tumour was calculated according to the formula a*b^2/2 (where a is the largest diameter of the tumour and b is the vertical axis). When the tumour volume had increased to 80-120 mm^3, the animals were allocated at random into test groups of in each case 6 animals. […]
The anti-tumour activity of the compounds was determined in the MEXF 462 xenograft tumour model in the nude mouse. Subcutaneous implantation of the tumour and the determination of tumour volumes were carried out as described hereinbefore. Groups of in each case 8 animals were used.
Equimolar amounts of the compound of Example 8 were administered ip twice weekly in the form of a 5% DMSO solution over the mentioned period.
The progression over time of the anti-tumour action, expressed in % of the tumour volume at the beginning of the test, over the period of therapy is shown in Table 3.

Another series in a line: Solubility in DMSO. The format is physicochemical. As to conditions: organic solvent or mixture, room temperature.
Setting [1] is: kidney histology after 28-day twice weekly ip treatment, equimolar to 450 mg of stock composition, affected/animals.
Where [2] appears, read: sodium salts ip, equimolar to 350 mg/kg of comparison compound, twice weekly over 5 weeks, 100% = no activity.
[3] abbreviates: sodium salts ip, equimolar to 350 mg/kg of comparison compound, twice weekly over 5 weeks.
Setting [4] is: room temperature, read-out: solubility in water at room temperature.

Values after ≈ are worked out from the molar mass of the structure shown. Counter-ions that a name gives are not always drawn.

Regarding `CN(C)N=Nc1ccc(C(=O)c2ccc(OCC(=O)[O-])cc2)cc1.[Na+]` [Ex. 30 of DE 1793115A], in the series with Tumour-carrying mice (after 28-day treatment period), the “macroscopic findings of the kidneys at post-mortem” value is “macroscopic changes (swelling, local discolouration) of the kidneys” and the renal histology finding result was “Marked focal tubular necrosis of the kidneys”. For the same molecule, in the series on Tumour-carrying mice (setting [1]), the Acute single-cell necrosis is 4/9 and the Focal tubular necrosis is 3/9. The “reduction in the tumour volume development” value in the series on MAXF 401 (350 mg/kg ip) stood at 50%. Besides, in the series on MAXF 401 (setting [2]), the T/C value is recorded as 48.5%. In the series on MAXF 401 (setting [3]), the Mortality is listed as 2/6.

The solubility is the concentration that dissolves in the medium under given conditions. As for `CN(C)/N=N/c1ccc(C(=O)c2ccc(OCCC(=O)NCCS(=O)(=O)[O-])cc2)cc1.[Na+]` [Example 9], in “Solubility in water” (setting [4]), the solubility was 666 mg/mL.

Regarding `CN(C)/N=N/c1ccc(C(=O)c2ccc(OCCC(=O)NC(CCC(N)=O)C(=O)O)cc2)cc1` (centres unmarked) [Example 7, 4-carbamoyl-2-{3-[4-(4-[(1E)-3,3-dimethyl-1-triazenyl]-benzoyl)-phenoxy]-propionylamino}-butanoic acid sodium salt], the “tumour volume in % of the tumour volume at the beginning of the test, Mean” value (from here on “tumour volume in % of the tumour volume”) in the series with MEXF 462 (day 0, 350 mg/kg ip twice weekly) stood at 100%; in the series on MEXF 462 (day 3, 350 mg/kg ip twice weekly), 278%; in the series with MEXF 462 (day 7, 350 mg/kg ip twice weekly), 172%; in the series with MEXF 462 (day 11, 350 mg/kg ip twice weekly), 73%; in the series on MEXF 462 (day 14, 350 mg/kg ip twice weekly) it was 49%; in the series on MEXF 462 (day 18, 350 mg/kg ip twice weekly), 24%. The “tumour volume in % of the tumour volume” value is given as 6% in the series on MEXF 462 (day 21, 350 mg/kg ip twice weekly); 2% in the series on MEXF 462 (day 25, 350 mg/kg ip twice weekly); 0.3% in the series with MEXF 462 (day 28, 350 mg/kg ip twice weekly). Further, in the series with MEXF 462, the outcome of treatment is on record as “complete remission”. In addition, in “Solubility in water” (25 °C, 25° C., read-out: solubility in water at 25° C.), the solubility is around 400 mg/mL.

What is called melting point is the temperature of the solid-liquid transition. Regarding `COC(=O)CNC(=O)CCOc1ccc(C(=O)c2ccc(/N=N/N(C)C)cc2)cc1` [Example 1], the melting point lay within 104 to 105 °C.

Take `CN(C)N=Nc1ccc(C(=O)c2ccc(OCC(=O)[O-])cc2)cc1.[Na+]` [Preparation 1]: in “Solubility in water” (recrystallisation from water, read-out: Solubility (converted)), the solubility was 40 mg/mL.

Regarding `CN(C)/N=N/c1ccc(C(=O)c2ccc(OCCC(=O)NCC(N)=O)cc2)cc1` [Example 8], in “Solubility in DMSO”, the solubility was found to be 833 mg/mL (≈ 2100 mM). The “tumour volume in % of the tumour volume” value was found to be 100% with MEXF 462 (day 0, 285 mg/kg ip twice weekly, 5% DMSO solution); 293% in the series on MEXF 462 (day 3, 285 mg/kg ip twice weekly, 5% DMSO solution); 369% in the series on MEXF 462 (day 7, 285 mg/kg ip twice weekly, 5% DMSO solution); 174% with MEXF 462 (day 11, 285 mg/kg ip twice weekly, 5% DMSO solution); 134% in the series with MEXF 462 (day 14, 285 mg/kg ip twice weekly, 5% DMSO solution); 107% with MEXF 462 (day 18, 285 mg/kg ip twice weekly, 5% DMSO solution). The “tumour volume in % of the tumour volume” value in the series with MEXF 462 (day 21, 285 mg/kg ip twice weekly, 5% DMSO solution) was 151%; in the series on MEXF 462 (day 25, 285 mg/kg ip twice weekly, 5% DMSO solution), 172%; in the series on MEXF 462 (day 28, 285 mg/kg ip twice weekly, 5% DMSO solution), 271%. Moreover, the outcome of treatment in the series on MEXF 462 is given as “pronounced slowing down of tumour growth”.

As for `CN(C)/N=N/c1ccc(C(=O)c2ccc(OCC(=O)NCC(=O)O)cc2)cc1` [TRIS salt], the remission result in the series on MAXF 401 (TRIS salt ip twice weekly, equimolar doses of 360, 400 and 500 mg/kg of the sodium salt, all doses) is on record as “complete remission”. Further, the “solubility in water at 25° C.” value in “Solubility in water” (25° C.) was “about 250 g/litre”. For the same molecule, in “Solubility in water” (setting [4]), the solubility came to 250 mg/mL.

Take `CN(C)/N=N/c1ccc(C(=O)c2ccc(OCCC(=O)NCC(=O)O)cc2)cc1` [Example 2, {3-[4(4-[(1E)-3,3-dimethyl-1-triazenyl]-benzoyl)-phenoxyl]propionylamino} acetic acid]: in the series on MAXF 401 (setting [2]), the T/C value is recorded as 3.4%. Besides, in the series on MAXF 401 (setting [3]), the Mortality is recorded as 0/6.

For the molecule `CN(C)/N=N/c1ccc(C(=O)c2ccc(OCC(=O)NCC(=O)O)cc2)cc1` [Example 4, {2-[4-(4-[(1E)-3,3-dimethyl-1-triazenyl]-benzoyl)-phenoxy]-acetylamino}acetic acid], the T/C value in the series with MAXF 401 (setting [2]) was determined as 12.6%. In the series with MAXF 401 (setting [3]), the Mortality is listed as 0/6.

Consider `CN(C)/N=N/c1ccc(C(=O)c2ccc(OCC(=O)NCC(=O)O)cc2)cc1` [Example 4a], for which the T/C value with MAXF 401 (400 mg/kg sodium salt ip twice weekly, after 4 weeks' therapy) stood at 12. In addition, the remission result with MAXF 401 (500 mg/kg sodium salt ip twice weekly, within 3 weeks of treatment) is on record as “complete remission”. Further, in the series “Solubility in water” (0.9% NaCl), the “salting-out effect in 0.9% NaCl” value is recorded as “pronounced salting-out effect”. Also, the “solubility in water at 25° C.” value is “about 4 g/litre” in the series “Solubility in water” (25° C.) and 4 g/L (≈ 10.4 mM) in the series “Solubility in water” (25° C.; listed as Example 4a)).
